According to US11214540B2, “Compositions for treating neurodegenerative diseases” (COGNITION THERAPEUTICS, INC., priority 2017, dated 2022):

assay: log P; type: physicochemical
Source text: The term “log P” refers to the partition coefficient of a compound. The partition coefficient is the ratio of concentrations of un-ionized compound in each of two solution phases, for example, octanol and water. To measure the partition coefficient of ionizable solute compounds, the pH of the aqueous phase is adjusted such that the predominant form of the compound is un-ionized. The logarithm of the ratio of concentrations of the un-ionized solute compound in the solvents is called log P. The log P is a measure of lipophilicity. For example, log Poct/wat=log([solute]octanol/[solute]un-ionized,water).
Combined Results for particular compounds described herein, with respect to log P, membrane trafficking (uM), sigma-2 receptor affinity, sigma-1 receptor affinity microsomal stability in mouse liver microsomes (MLM) (t1/2, min), t1/2 normalized to CT)10914 and in vitro toxicity potassium channel hERG (IC50, nM) are provided in Table 1: […]

log P	SMILES
3.54	CC(C)=CC(CC(C)(C)c1ccc(S(C)(=O)=O)cc1)NCC1CCOCC1 (stereo not drawn) [Compound 88]
5.37	CC(C)=CC(CC(C)(C)c1ccc(S(C)(=O)=O)cc1)N1CCC(C(C)C)CC1 (stereo not drawn) [Compound 89]
5.71	COc1ccc(C(C)(C)CC(c2ccccc2)N2CCCCC2)cc1 (stereo not drawn) [Compound 116]
6.47	CC(C)(CC(c1ccccc1)N1CCCCC1)c1ccc(Cl)cc1 (stereo not drawn) [Compound 117]
4.64	COc1ccc(C(C)(C)CC(c2ccccc2)N2CCOCC2)cc1 (stereo not drawn) [Compound 118]
6.67	CC(C)(CC(c1ccccc1)N1CCC(C2CCOCC2)CC1)c1ccc(Cl)cc1 (stereo not drawn) [Compound 119]
5.4	CC(C)(CC(c1ccccc1)N1CCOCC1)c1ccc(Cl)cc1 (stereo not drawn) [Compound 120]
5.66	CC(C)(CC(NCC1CCOCC1)c1ccccc1)c1ccc(Cl)cc1 (stereo not drawn) [Compound 121]
5.91	COc1ccc(C(C)(C)CC(c2ccccc2)N2CCC(C3CCOCC3)CC2)cc1 (stereo not drawn) [Compound 122]
5.16	CC(C)=CC(CC(C)(C)c1ccc(N2CCOCC2)cc1)N1CCC2(CCOCC2)CC1 (stereo not drawn) [Compound 147]
4.14	CC(C)=CC(CC(C)(C)c1ccc(N2CCOCC2)cc1)N1CCC(C)(O)CC1 (stereo not drawn) [Compound 148]
3.37	CC(C)=CC(CC(C)(C)c1ccc(F)cc1)N1CCN(S(C)(=O)=O)CC1 (stereo not drawn) [Compound 154]
6.46	CC(C)=CC(CC(C)(C)c1ccc(C(F)(F)F)cc1)N1CCN(C(=O)c2ccccc2)CC1 (stereo not drawn) [Compound 155]
6.19	CC(C)=CC(CC(C)(C)c1ccc(Cl)cc1)N1CCN(C(=O)c2ccccc2)CC1 (stereo not drawn) [Compound 157]
7.1	CC(C)=CC(CC(C)(C)c1ccc(C(F)(F)F)cc1)N1CCC(CCOC(C)C)CC1 (stereo not drawn) [Compound 164]
4.6	CC(C)=CC(NCC1CCOCC1)C(C)(C)Oc1ccc(Cl)cc1 (stereo not drawn) [Compound 165]
3.99	CC(C)=CC(NCC1CCOCC1)C(C)(C)Oc1ccccc1 (stereo not drawn) [Compound 166]
5.1	COC1CN(C(C=C(C)C)CC(C)(C)c2ccc(Cl)cc2)C1 (stereo not drawn) [Compound 167]
6.17	CC(C)=CC(CC(C)(C)c1ccc(OC(C)(C)C)cc1)N1CCC2(CCOCC2)CC1 (stereo not drawn) [Compound 168]
5.15	CC(C)=CC(CC(C)(C)c1ccc(OC(C)(C)C)cc1)N1CCC(C)(O)CC1 (stereo not drawn) [Compound 169]
4.87	CC(C)=CC(CC(C)(C)c1ccc(OC(C)(C)C)cc1)N1CCC(O)CC1 (stereo not drawn) [Compound 170]
6.5	COCCCC1CCN(C(C=C(C)C)CC(C)(C)c2ccc(OC(C)C)cc2)CC1 (stereo not drawn) [Compound 171]
3.52	COCCNC(C=C(C)C)C(C)(C)Oc1ccccc1 (stereo not drawn) [Compound 172]
4.81	CC(C)=CC(NCC(C)C)C(C)(C)Oc1ccccc1 (stereo not drawn) [Compound 173]
3.67	COCCNC(C=C(C)C)C(C)(C)Oc1ccc(F)cc1 (stereo not drawn) [Compound 174]
4.13	COCCNC(C=C(C)C)C(C)(C)Oc1ccc(Cl)cc1 (stereo not drawn) [Compound 175]

log P	SMILES
4.96	CC(C)=CC(NCC(C)C)C(C)(C)Oc1ccc(F)cc1 (stereo not drawn) [Compound 176]
5.42	CC(C)=CC(NCC(C)C)C(C)(C)Oc1ccc(Cl)cc1 (stereo not drawn) [Compound 177]
4.59	CC(C)=CC(CC(C)(C)c1ccc(OC(C)C)cc1)N1CCC(O)CC1 (stereo not drawn) [Compound 178]
4.63	COCCCC1CCN(C(C=C(C)C)COc2ccc(F)cc2)CC1 (stereo not drawn) [Compound 190]
4.89	CC(C)(CCN1CCC(C2CCOCC2)CC1)c1ccc(Cl)cc1 [Compound 193]
6.01	CC(C)=CC(CC(C)(C)c1ccc(Cl)cc1)N1CCN(C(=O)OC(C)(C)C)CC1 (stereo not drawn) [Compound 194]
3.36	CC(C)=CC(CC(C)(C)c1ccc(F)cc1)N1CCN(S(=O)(=O)N(C)C)CC1 (stereo not drawn) [Compound 195]
4.85	CCOC(=O)N1CCN(C(C=C(C)C)CC(C)(C)c2ccc(F)cc2)CC1 (stereo not drawn) [Compound 196]
4.95	COC(=O)N1CCN(C(C=C(C)C)CC(C)(C)c2ccc(Cl)cc2)CC1 (stereo not drawn) [Compound 197]
4.62	COC1CCN(C(C=C(C)C)CC(C)(C)c2ccccc2)CC1 (stereo not drawn) [Compound 202]
3.75	CC(C)=CC(CC(C)(C)c1ccc(F)cc1)N1CCN(C)C(=O)C1 (stereo not drawn) [Compound 203]
5.7	CC(C)=CC(CC(C)(C)c1ccccc1)N1CCC(C2CCOCC2)CC1 (stereo not drawn) [Compound 204]
4.26	CC(C)=CC(CC(C)(C)c1ccc(C(F)(F)F)cc1)N1CCNC(=O)C1 (stereo not drawn) [Compound 206]
4.09	CC(C)=CC(CC(C)(C)c1ccc(C(F)(F)F)cc1)N1CCN(S(=O)(=O)N(C)C)CC1 (stereo not drawn) [Compound 207]
5.58	CCOC(=O)N1CCN(C(C=C(C)C)CC(C)(C)c2ccc(C(F)(F)F)cc2)CC1 (stereo not drawn) [Compound 208]
6.47	CC(C)=CC(CC(C)(C)c1ccc(C(F)(F)F)cc1)N1CCN(C(=O)OCC(C)C)CC1 (stereo not drawn) [Compound 209]
6.23	CC(C)=CC(CC(C)(C)c1ccc(Cl)cc1)N1CCC(O)(c2ccccc2)CC1 (stereo not drawn) [Compound 211]
6.27	CCCCC1(O)CCN(C(C=C(C)C)CC(C)(C)c2ccc(Cl)cc2)CC1 (stereo not drawn) [Compound 214]
5.5	CC(C)=CC(CC(C)(C)c1ccc(F)cc1)N1CCC(C)(OC(=O)NC(C)C)CC1 (stereo not drawn) [Compound 215]
7.65	CCCCC1(OC(=O)NC(C)C)CCN(C(C=C(C)C)CC(C)(C)c2ccc(C(F)(F)F)cc2)CC1 (stereo not drawn) [Compound 216]
3.91	COCCC1(O)CCN(C(C=C(C)C)CC(C)(C)c2ccccc2)CC1 (stereo not drawn) [Compound 219]
5.62	CC(C)=CC(CC(C)(C)c1ccccc1)N1CCC(O)(c2ccccc2)CC1 (stereo not drawn) [Compound 220]
5.76	CC(C)=CC(CC(C)(C)c1ccc(F)cc1)N1CCC(O)(c2ccccc2)CC1 (stereo not drawn) [Compound 221]
5.81	CCCCC1(O)CCN(C(C=C(C)C)CC(C)(C)c2ccc(F)cc2)CC1 (stereo not drawn) [Compound 222]
5.67	CCCCC1(O)CCN(C(C=C(C)C)CC(C)(C)c2ccccc2)CC1 (stereo not drawn) [Compound 223]
3.98	CC(C)=CC(CC(C)(C)c1ccc(Cl)cc1)N1CCNC(=O)C1 (stereo not drawn) [Compound 224]

log P	SMILES
7.37	CCCCC1(OC(=O)NC(C)C)CCN(C(C=C(C)C)CC(C)(C)c2ccc(Cl)cc2)CC1 (stereo not drawn) [Compound 225]
3.38	CC(C)=CC(CC(C)(C)c1ccccc1)N1CCNC(=O)C1 (stereo not drawn) [Compound 227]
6.24	CC(C)=CC(CC(C)(C)c1ccc(C(F)(F)F)cc1)N1CCC(C)(OC(=O)NC(C)C)CC1 (stereo not drawn) [Compound 228]
5.68	COCC1CCCN1C(C=C(C)C)CC(C)(C)c1ccc(Cl)cc1 (stereo not drawn) [Compound 234]
5.68	COC[C@H]1CCCN1[C@H](C=C(C)C)CC(C)(C)c1ccc(Cl)cc1 [Compound 235]
5.04	CC(C)=CC(CC(C)(C)c1ccc(Cl)cc1)N1CCC[C@H]1CO (stereo partly drawn) [Compound 237]
5.04	CC(C)=C[C@H](CC(C)(C)c1ccc(Cl)cc1)N1CCC[C@@H]1CO [Compound 240]
4.57	CC(C)=C[C@@H](CC(C)(C)c1ccc(F)cc1)N1CCC[C@@H]1CO [Compound 241]
5.31	CC(C)=C[C@H](CC(C)(C)c1ccc(C(F)(F)F)cc1)N1CCC[C@@H]1CO [Compound 243]
5.68	COC[C@H]1CCCN1C(C=C(C)C)CC(C)(C)c1ccc(Cl)cc1 (stereo partly drawn) [Compound 246]
5.95	COC[C@H]1CCCN1C(C=C(C)C)CC(C)(C)c1ccc(C(F)(F)F)cc1 (stereo partly drawn) [Compound 247]
5.84	CCOC(=O)C1CCN(C(C=C(C)C)CC(C)(C)c2ccc(Cl)cc2)CC1 (stereo not drawn) [Compound 248]
5.22	COC[C@H]1CCCN1C(C=C(C)C)CC(C)(C)c1ccc(F)cc1 (stereo partly drawn) [Compound 251]
2.62	COc1cc(CCC(C)(C)N2Cc3cccc(C(=O)N4CCN(C(=O)CN(C)C)CC4)c3C2)ccc1O [Compound 258]
4.03	COc1cc(CCC(C)(C)N2Cc3cccc(C(=O)N4CCN(C(=O)[C@@H](N)Cc5ccccc5)CC4)c3C2)ccc1O [Compound 259]
2.46	COc1cc(CCC(C)(C)N2Cc3cccc(C(=O)N4CCN(C(=O)[C@@H]5CCCN5)CC4)c3C2)ccc1O [Compound 260]
6.28	COCCOCCC1CCN([C@H](C=C(C)C)CC(C)(C)c2ccc(C(F)(F)F)cc2)CC1 [Compound 263]
6.28	COCCOCCC1CCN([C@@H](C=C(C)C)CC(C)(C)c2ccc(C(F)(F)F)cc2)CC1 [Compound 264]
5.13	CC(C)=C[C@H](CC(C)(C)c1ccc(C(F)(F)F)cc1)N1CCC(C)(O)CC1 [Compound 265]
5.13	CC(C)=C[C@@H](CC(C)(C)c1ccc(C(F)(F)F)cc1)N1CCC(C)(O)CC1 [Compound 266]
5.37	CCOC(=O)C1CCN(C(C=C(C)C)CC(C)(C)c2ccc(F)cc2)CC1 (stereo not drawn) [Compound 267]
4.83	CCOC(=O)C1CCN(C(C)CC(C)(C)c2ccc(Cl)cc2)CC1 (stereo not drawn) [Compound 268]
2.2	COc1cc(CCC(C)(C)N2Cc3cccc(C(=O)N4CCN(C(=O)[C@H](C)N)CC4)c3C2)ccc1O [Compound 269]
1.81	COc1cc(CCC(C)(C)N2Cc3cccc(C(=O)N4CCN(C(=O)CN)CC4)c3C2)ccc1O [Compound 270]
4.85	COc1cc(CCC(C)(C)N2Cc3cccc(C(=O)N4CCN(C(=O)C(Cc5ccccc5)N(C)C)CC4)c3C2)ccc1O (stereo not drawn) [Compound 271]
3.35	COC(=O)N1CCN(C(=O)c2cccc3c2CN(C(C)(C)CCc2ccc(O)c(OC)c2)C3)CC1 [Compound 272]
